The molecules below were run against Epidermal growth factor receptor (Homo sapiens) (UniProt P00533) (assay: Tested for inhibitory activity against Epidermal growth factor receptor).
Sequence of Epidermal growth factor receptor (Homo sapiens) (P00533 whole entry, looked up): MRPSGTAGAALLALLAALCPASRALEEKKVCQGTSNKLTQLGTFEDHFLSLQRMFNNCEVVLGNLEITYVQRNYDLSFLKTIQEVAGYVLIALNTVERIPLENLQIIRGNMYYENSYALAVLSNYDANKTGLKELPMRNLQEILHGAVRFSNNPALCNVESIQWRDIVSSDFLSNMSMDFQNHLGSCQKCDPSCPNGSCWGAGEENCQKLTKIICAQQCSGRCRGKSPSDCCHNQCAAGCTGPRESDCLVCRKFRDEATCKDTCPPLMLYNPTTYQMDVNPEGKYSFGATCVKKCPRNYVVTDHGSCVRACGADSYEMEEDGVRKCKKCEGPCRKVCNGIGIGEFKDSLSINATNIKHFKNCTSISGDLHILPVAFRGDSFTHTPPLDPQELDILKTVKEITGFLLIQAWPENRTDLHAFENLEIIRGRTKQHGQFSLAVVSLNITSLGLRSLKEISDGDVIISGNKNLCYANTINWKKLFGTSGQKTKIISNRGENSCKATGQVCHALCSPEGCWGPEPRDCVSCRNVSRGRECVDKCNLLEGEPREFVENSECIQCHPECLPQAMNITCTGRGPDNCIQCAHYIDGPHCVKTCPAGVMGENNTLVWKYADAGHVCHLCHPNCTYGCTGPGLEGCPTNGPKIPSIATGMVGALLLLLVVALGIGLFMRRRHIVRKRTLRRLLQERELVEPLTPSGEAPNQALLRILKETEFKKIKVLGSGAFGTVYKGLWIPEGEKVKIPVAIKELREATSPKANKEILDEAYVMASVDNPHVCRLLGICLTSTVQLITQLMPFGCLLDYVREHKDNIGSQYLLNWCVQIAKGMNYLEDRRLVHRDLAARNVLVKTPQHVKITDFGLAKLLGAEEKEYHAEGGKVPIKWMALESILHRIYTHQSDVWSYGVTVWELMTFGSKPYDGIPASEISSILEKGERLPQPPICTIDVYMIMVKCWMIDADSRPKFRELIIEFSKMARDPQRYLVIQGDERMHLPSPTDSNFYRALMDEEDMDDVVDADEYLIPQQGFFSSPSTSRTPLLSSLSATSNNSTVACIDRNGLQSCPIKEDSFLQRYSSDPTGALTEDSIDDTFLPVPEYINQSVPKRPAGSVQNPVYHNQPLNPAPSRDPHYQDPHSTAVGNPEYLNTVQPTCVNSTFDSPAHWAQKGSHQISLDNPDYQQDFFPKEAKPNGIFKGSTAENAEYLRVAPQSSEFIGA

Going from COc1cccc(-c2cn(C3CCN(CCN(C)CCO)CC3)c3ncnc(N)c23)c1 [2-((2-(4-(4-amino-5-(3-methoxyphenyl)-7H-pyrrolo[2,3-d]pyrimidin-7-yl)piperidin-1-yl)ethyl)(methyl)amino)ethanol] to COCCNCCN1CCC(n2cc(-c3cccc(OC)c3)c3c(N)ncnc32)CC1 [7-{1-[2-(2-Methoxy-ethylamino)-ethyl]-piperidin-4-yl}-5-(3-methoxy-phenyl)-7H-pyrrolo[2,3-d]pyrimidin-4-ylamine], the IC50 rises from 340 nM to 620 nM (1.8-fold).

CN(C)C(=O)CN1CCC(n2cc(-c3cccc(O)c3)c3c(N)ncnc32)CC1 [2-{4-[4-Amino-5-(3-hydroxy-phenyl)-pyrrolo[2,3-d]pyrimidin-7-yl]-piperidin-1-yl}-N,N-dimethyl-acetamide] and COC(=O)CN1CCC(n2cc(-c3cccc(O)c3)c3c(N)ncnc32)CC1 [{4-[4-Amino-5-(3-hydroxy-phenyl)-pyrrolo[2,3-d]pyrimidin-7-yl]-piperidin-1-yl}-acetic acid methyl ester] are within 1.5-fold of each other in IC50: 400 nM for the first, 290 nM for the second.

Work on Nc1ncnc2c1c(-c1cccc(O)c1)cn2C1CCN(CCO)CC1 [3-(4-amino-7-(1-(2-hydroxyethyl)piperidin-4-yl)-7H-pyrrolo[2,3-d]pyrimidin-5-yl)phenol] yielded an IC50 of 360 nM.
